Measurements published in US20090181467A1, “Method of assessing and of activating the alternative cellular energy (ACE) pathway in the therapy of diseases” (MI Hope Inc. dba Progressive University, priority 2008, published 2009).

What was measured:
[1] = test system: alternative cellular energy (ACE) pathway; test: neutral red dye / UV-A light activation of the ACE pathway in patients; format: in vivo, human
Excerpt: A series of patients have been seen who have a history of recurrent herpes simplex virus (HSV) skin lesions, or a past history of herpes zoster virus (HZV) infections, but with no actual skin lesions present at the time of examination. Another series of patients were recruited from among the patients attending a chiropractic clinic for various pain or impaired mobility related conditions. Under the direction of the inventor, both groups of patients were asked to volunteer for a study on assessing and, if necessary, activating the ACE pathway. Q-tips were used to sample various areas of their skin as well as the mucosal (buccal) surface of their mouths. Urine samples were also collected. The materials were checked for direct fluorescence using a 15W ultraviolet-A light emitting spiral fluorescent light (Halco, ProLume light). The swabs were then touched against other Q-tips that were soaked in an approximately 1 mg/ml solution of neutral red. Several drops of the neutral red solution were added to the urine. The Q-tips and urine were again examined under UV-A light for discernable fluorescence compared to Q-tips exposed only to neutral red. […] Clinic staff similarly tested and gave negative results.
Skin areas of the patients from which fluorescing material were obtained were then wiped with absorbent cloth. These cloth was placed over areas of skin from which the material was collected, stained with neutral red, and exposed to UV-A light from spiral fluorescent bulbs. Under UV illumination, fluorescence developed in areas of skin beneath and adjacent to the stained cloth. The fluorescence lasted for varying periods of time extending in one patient to 3 hours, but generally less than 1 hour. […] Similarly, in most patients there was no discernable fluorescing material when the patients were seen the next day. […] A person commented upon the relief they experienced from a chronically painful shoulder that had resulted from injuries received years earlier in a car accident. Another patient's personality transformed from expressions of anger and hostility to one of laughter and smiles.

[2] = test system: active skin lesions caused by herpes simplex virus (HSV), herpes zoster virus (HZV) and human papillomavirus (HPV) infections; details: cited from earlier work

## Cc1cc2nc3ccc(N(C)C)cc3nc2cc1N.Cl [neutral red]
[1]; all patients, at the end of period of UV illumination
  sense of wellness: much improved sense of wellness
[1]; chiropractic patients, following day
  severity of the pain and restricted mobility symptoms: marked reductions
[1]; no additional intervention
  persistence of benefits after a therapy session: 2-3 weeks
[1]; patients with prior history of recurrent HSV infections, immediately after therapy session and next day
  vitality: improved vitality
[2]
  healing of active skin lesions: successfully used in expediting the healing
